In patent US6472213B1, “Shuttle vectors for the introduction of DNA into mycobacteria and utilization of such bacteria as vaccines” (Institut National de la Sante et de la Recherche Medicale …, priority 1994, dated 2002):

Key:
[1] = system: mycobacteria carrying the plasmid pMR001; assay type: cell-based, M. smegmatis, M. bovis BCG, M. tuberculosis
[2] = system: non-transformed control mycobacteria; assay type: cell-based, M. smegmatis, M. bovis BCG, M. tuberculosis
[3] = system: pVN2-carrying mycobacteria; assay type: cell-based, M. smegmatis, M. bovis BCG, M. tuberculosis
[4] = system: Mycobacterium smegmatis carrying plasmid pVN3; assay: Resistance to arsenic conferred by plasmid pVN3; assay type: cell-based; conditions: pVN3 in Mycobacterium smegmatis

| Compound | MIC Liquid medium [1] | MIC Solid medium [1] | concentration at which still capable of growing [1] | concentration of complete inhibition of bacterial growth [1] | MIC Liquid medium [2] | MIC Solid medium [2] | concentration at which considerable susceptibility is shown [2] | concentration of complete inhibition of bacterial growth (MIC) [2] | MIC Liquid medium [3] | MIC Solid medium [3] | concentration up to which growth occurs [3] | resistance level [4] |
| --- | --- | --- | --- | --- | --- | --- | --- | --- | --- | --- | --- | --- |
| [Cl][Hg][Cl] [HgCl2] | 40 µg/mL | 160 µg/mL | 20 µg/mL | 160 µg/mL | 1.25 µg/mL | 0.15 µg/mL | 0.15 µg/mL | 1 µg/mL | 40 µg/mL | 160 µg/mL | ≤ 40 µg/mL |  |
| arsenic nitrate [AsNO3] |  |  |  |  |  |  |  |  |  |  |  | ~10 mg/L |
